Earlier results in paper PMC5085262 (Chemical Science, 2016).

Conditions: no reference given

Oc1cccc2cccnc12 [Quin, 8-hydroxyquinoline]
pKa of the free ligand (phenolate group): ≈ 9.9
